Assay results: patent US12448369B2 (Edgewise Therapeutics, Inc., priority 2023, dated 2025)

Experiments:
[1] = tested on: Rabbit Psoas myofibrils (skeletal myosin ATPase); assay: Myofibril ATPase assay, rabbit psoas (skeletal) myofibrils; assay type: biochemical; conditions: Y75 value (no ‡ mark); rabbit psoas myofibrils
How it was run: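 Myofibrils homogenized in Triton X-100 buffer were assayed in pH 7.0 PIPES with defined Ca2+/EGTA. Myosin-driven ADP formation was coupled to NADH oxidation, with depletion monitored at 340 nm. Each value is the concentration that lowers activity to 75% of vehicle or, for activators, raises it to 125%.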

[2] = tested on: Porcine atria myofibrils (atrial myosin ATPase); assay: Myofibril ATPase assay, porcine atria myofibrils; assay type: biochemical; conditions: Y75 value (no ‡ mark); porcine atria myofibrils
How it was run: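 Values are Y75 (concentration cutting ATPase activity to 75% of vehicle) or Y125 (raising it to 125%), taken from 4-parameter logistic fits. Rates come from NADH disappearance at 340 nm in a PK/LDH-coupled assay with porcine atria myofibrils.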

[3] = target: T1, Porcine ventricle myofibrils (ventricular myosin ATPase) (Sus scrofa, UniProt P79293); assay: Myofibril ATPase assay, porcine ventricle myofibrils; assay type: biochemical, porcine (Yucatan minipigs); conditions: Y75 value (no ‡ mark); porcine ventricle myofibrils
T1 construct: Myofibrils from porcine cardiac muscle was isolated from the left ventricle of Yucatan minipigs; tissue Exemplar Genetics; host or cells: left ventricle of Yucatan minipigs, myofibrils prepared in house
How it was run: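 ATPase activity of porcine left-ventricular myofibrils is tracked as the slope of NADH loss at 340 nm through a PK/LDH couple. Values are the concentrations that bring activity to 75% (inhibitors) or 125% (activators) of vehicle.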

T1 sequence (P79293 whole entry): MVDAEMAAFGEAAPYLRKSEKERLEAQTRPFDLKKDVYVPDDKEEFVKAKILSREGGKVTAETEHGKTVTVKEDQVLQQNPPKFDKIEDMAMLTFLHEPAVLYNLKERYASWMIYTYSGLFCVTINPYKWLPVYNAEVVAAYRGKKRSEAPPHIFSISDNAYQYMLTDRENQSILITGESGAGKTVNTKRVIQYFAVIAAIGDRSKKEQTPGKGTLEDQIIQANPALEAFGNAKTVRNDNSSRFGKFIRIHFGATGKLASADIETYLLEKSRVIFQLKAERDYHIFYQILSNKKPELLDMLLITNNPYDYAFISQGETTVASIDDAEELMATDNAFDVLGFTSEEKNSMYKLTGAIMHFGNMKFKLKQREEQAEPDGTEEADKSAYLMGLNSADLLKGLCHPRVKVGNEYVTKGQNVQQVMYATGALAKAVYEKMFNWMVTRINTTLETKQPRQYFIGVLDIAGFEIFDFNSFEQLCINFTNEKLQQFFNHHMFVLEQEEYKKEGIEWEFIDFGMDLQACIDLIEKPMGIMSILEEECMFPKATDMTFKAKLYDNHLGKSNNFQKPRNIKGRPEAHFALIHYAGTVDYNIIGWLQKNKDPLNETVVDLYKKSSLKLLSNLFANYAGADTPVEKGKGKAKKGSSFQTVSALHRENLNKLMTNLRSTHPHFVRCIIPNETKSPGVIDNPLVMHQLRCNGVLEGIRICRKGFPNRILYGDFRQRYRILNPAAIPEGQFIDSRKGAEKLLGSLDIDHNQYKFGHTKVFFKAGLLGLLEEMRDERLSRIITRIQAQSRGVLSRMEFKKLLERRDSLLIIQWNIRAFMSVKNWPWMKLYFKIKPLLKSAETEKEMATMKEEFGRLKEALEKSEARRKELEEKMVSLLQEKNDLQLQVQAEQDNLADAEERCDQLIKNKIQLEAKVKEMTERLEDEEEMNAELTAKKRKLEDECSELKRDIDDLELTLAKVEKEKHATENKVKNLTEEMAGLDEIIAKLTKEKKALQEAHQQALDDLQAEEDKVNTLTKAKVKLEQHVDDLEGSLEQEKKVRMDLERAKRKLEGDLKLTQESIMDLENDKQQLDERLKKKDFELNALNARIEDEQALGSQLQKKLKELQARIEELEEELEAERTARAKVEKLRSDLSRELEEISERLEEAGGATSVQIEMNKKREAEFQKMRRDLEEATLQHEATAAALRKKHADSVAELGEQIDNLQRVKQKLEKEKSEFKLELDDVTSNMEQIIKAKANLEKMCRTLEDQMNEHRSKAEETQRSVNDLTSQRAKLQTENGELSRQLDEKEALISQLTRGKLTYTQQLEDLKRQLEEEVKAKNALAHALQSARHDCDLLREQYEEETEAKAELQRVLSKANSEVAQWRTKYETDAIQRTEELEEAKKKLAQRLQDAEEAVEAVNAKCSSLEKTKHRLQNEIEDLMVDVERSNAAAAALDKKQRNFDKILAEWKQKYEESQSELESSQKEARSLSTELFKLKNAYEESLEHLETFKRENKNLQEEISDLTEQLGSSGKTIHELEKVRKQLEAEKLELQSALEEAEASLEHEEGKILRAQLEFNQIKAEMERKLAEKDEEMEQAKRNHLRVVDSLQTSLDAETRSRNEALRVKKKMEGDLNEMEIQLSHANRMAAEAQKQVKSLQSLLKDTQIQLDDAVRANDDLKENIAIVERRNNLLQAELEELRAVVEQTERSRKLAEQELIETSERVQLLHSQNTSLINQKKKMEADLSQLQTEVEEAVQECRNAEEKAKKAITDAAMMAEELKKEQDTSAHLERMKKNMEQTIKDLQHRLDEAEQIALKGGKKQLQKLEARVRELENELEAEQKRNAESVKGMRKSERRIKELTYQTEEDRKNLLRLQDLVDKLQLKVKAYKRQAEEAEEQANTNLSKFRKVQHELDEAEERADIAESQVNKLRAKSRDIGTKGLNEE

Compound	Skeletal EC25 [1] [µM]	Atrial EC25 [2] [µM]	Ventricular EC25 [3] [µM]
C[C@H](NC(=O)Cc1cc2cc(F)ccc2[nH]c1=O)c1ccc(C#N)cn1 [compound 1126]	100.00	100.00	100.00
Cc1c(CC(=O)N[C@H](C)c2ccc(C#N)cn2)c(=O)[nH]c2ccc(F)cc12 [compound 1127]	0.24	0.72	1.57
Cc1c(CC(=O)N[C@@H](C)c2ccc(C#N)cn2)c(=O)[nH]c2ccc(F)cc12 [compound 1128]	0.09	0.52	0.70
Cc1nc(C#N)ncc1[C@@H](C)NC(=O)Cc1c(C)c2c(F)c(F)ccc2[nH]c1=O [compound 1131]	0.53	0.35	0.89
Cc1nc(C#N)ncc1[C@H](C)NC(=O)Cc1c(C)c2c(F)c(F)ccc2[nH]c1=O [compound 1132]	0.02	0.10	0.05
Cc1c(CC(=O)N[C@H](C)c2ccc(C#N)nn2)c(=O)[nH]c2ccc(F)c(F)c12 [compound 1133]	0.04	0.09	0.14
Cc1cc(C#N)nnc1[C@@H](C)NC(=O)Cc1c(C)c2c(F)c(F)ccc2[nH]c1=O [compound 1135]	2.90	0.59	5.94
Cc1cc(C#N)nnc1[C@H](C)NC(=O)Cc1c(C)c2c(F)c(F)ccc2[nH]c1=O [compound 1136]	0.05	0.14	0.12
C[C@@H](NC(=O)Cc1cc2c(F)cc(F)cc2[nH]c1=O)c1ncc(C#N)cc1F [compound 1137]	5.34	5.32	2.51

Results, then the molecule that gave them:

Skeletal EC25 [1] [µM]	Atrial EC25 [2] [µM]	Ventricular EC25 [3] [µM]	Compound
0.04	1.64	1.22	C[C@H](NC(=O)Cc1cc2c(F)cc(F)cc2[nH]c1=O)c1ncc(C#N)cc1F [compound 1138]
0.03	0.14	0.14	Cc1nc(C#N)cnc1[C@@H](C)NC(=O)Cc1c(C)c2c(F)c(F)ccc2[nH]c1=O [compound 1139]
0.00	0.08	0.06	Cc1nc(C#N)cnc1[C@H](C)NC(=O)Cc1c(C)c2c(F)c(F)ccc2[nH]c1=O [compound 1140]
1.78	1.44	4.45	C[C@@H](NC(=O)Cc1c(C2CC2)c2c(F)cccc2[nH]c1=O)c1ncc(C#N)cc1F [compound 1143]
0.09	0.29	0.84	C[C@H](NC(=O)Cc1c(C2CC2)c2c(F)cccc2[nH]c1=O)c1ncc(C#N)cc1F [compound 1144]
1.01	2.84	0.94	Cc1c(F)ccc2[nH]c(=O)c(CC(=O)N[C@H](C)c3ncc(F)cc3F)c(C#N)c12 [compound 1147]
0.05	0.06	0.09	Cc1c(F)ccc2[nH]c(=O)c(CC(=O)N[C@@H](C)c3ncc(F)cc3F)c(C#N)c12 [compound 1148]
0.47	1.90	0.15	Cc1c(F)ccc2[nH]c(=O)c(CC(=O)N[C@H](C)c3ncc(C#N)cc3F)c(C#N)c12 [compound 1149]
0.04	0.05	0.05	Cc1c(F)ccc2[nH]c(=O)c(CC(=O)N[C@@H](C)c3ncc(C#N)cc3F)c(C#N)c12 [compound 1150]
10.08	21.52	21.67	C[C@@H](NC(=O)Cc1c(C2CC2)c2cc(C#N)ccc2[nH]c1=O)c1ncc(C#N)cc1F [compound 1151]
